Results from patent US20130297023A1, “Methods and Devices For Treating Intervertebral Disc Disease” (priority 2012, published 2013).

Assays:
bovine NP cells = assay: Real-time qPCR of LPS- or IL-1-induced catabolic genes and TLR-2 in bovine NP cell monolayers; type: cell-based
Procedure: (§1) Human spine segments (T11/12 to S1) were received within 24 hours of death of donors from the Gift of Hope Organ and Tissue Donor Network (Elmhurst, Ill.), after obtaining consent from the families. Each of the lumbar segments underwent magnetic resonance imaging (MRI). Intact disc specimens (Thompsons grade 2 or 3) were removed and processed aseptically (Thompson et al., 1990; Kim et al., 2009). After dissection of the NP portion of discs either from human or bovine tails, NP cells were released by enzymatic digestion in Dulbecco's modified Eagle's medium [(DMEM)/Ham's F-12 (1:1)] culture medium with sequential treatments of 0.2% pronase and 0.025% collagenase P, as previously described (Kim et al.; Loeser et al., 2003). Alginate beads and monolayers were prepared for long-term (21 days) and short-term studies (1-2 days) as previously described by our group (Kim et al.; Im et al., 2003; Im et al., 2007b; Im et al., 2008; Li et al., 2008a).
(§2) For short-term monolayer cultures, isolated NP cells from either bovine tails or human spine discs were counted and plated onto 12-well plates at 8×10^5 cells/cm^2 as previously described (Im et al., 2003; Im et al., 2007b). Cells were stimulated with either IL-1 (10 ng/mL, NCI) or LPS (10 μg/mL, Sigma-Aldrich, St. Louis, Mont.) in the presence or absence of MyD88 peptide inhibitor (MyD88i; IMGENEX, San Diego, Calif.) at the concentration of 100 μM, in 1 mL per well of serum-free medium for 24 hours at 37° C. under 5% CO2. Supernatants were collected 24 hours after the initiation of each treatment and subjected to western blotting analyses for secreted matrix-degrading enzyme production. Cells were harvested and prepared for either cell lysates or total RNA extraction followed by real-time qPCR analyses, as previously described (Li et al., 2008b). 18s rRNA was used for normalization.
(§3) Total RNA was isolated from the cells using Trizol reagent (Invitrogen, Carlsbad, Calif.) following the instructions provided by the manufacturer. Reverse transcription was carried out with 1 μg total RNA using the ThermoScript™ RT-PCR system (Invitrogen, Carlsbad, Calif.) for first strand cDNA synthesis.
(§4) For real-time qPCR, cDNA was amplified using MyiQ Real-Time qPCR Detection System (Bio-Rad Hercules, Calif.). The synthesized cDNA was subjected to real-time qPCR utilizing the Bio-Rad iQTM SYBR Green supermix (Bio-Rad Hercules, Calif.). A threshold cycle (Ct value) was obtained from each amplification curve using iQ5 Optical System Software provided by the manufacturer (Bio-Rad Hercules, CA). Relative mRNA expression was determined using the ^ΔΔCT and calculated as follows: ^ΔΔCT=^ΔCT (gene of interest)−^ΔCT (endogenous control). Gene quantification was conducted for entire, individual treatment groups and expressed in terms of fold change from untreated control levels. Expression of 18s rRNA was used as the internal control. The deviations in samples represent 3 different donors in 3 separate experiments.
Therefore, NP cells were treated with MyD88i (100 μM), LPS or IL-1, individually, or combinations of LPS and MyD88i or IL-1 and MyD88i for 24 hours. Resulting cellular responses were then analyzed for alterations in gene expression and/or secreted protein levels. Our data reveal the significant upregulation of collagenase (MMP-13) and aggrecanases (ADAMTS-4, ADAMTS-5) after stimulation with either LPS or IL-1 compared to control (untreated) in bovine NP cells (FIGS. 1A˜C).

human NP cells [1] = assay: Real-time qPCR and western blotting of LPS- or IL-1-induced MMP-13, MMP-1, ADAMTS-4 and iNOS in human NP cell monolayers; type: cell-based; conditions: co-treatment MyD88i 100 μM, 24 hr
Procedure: as §1, §2, §3, §4
Cell and tissue lysates were prepared using modified RIPA buffer, as previously described (Li et al., 2008a; Li et al., 2008c). The total protein concentrations of cell lysates were determined by a bicinchoninic acid protein assay (Pierce, Rockford, Ill., USA). An equal amount of protein was resolved by 10% SDS-polyacrylamide gels (SDS-PAGE) and transferred to a nitrocellulose membrane for immunoblot analyses, as described previously (Im et al., 2007b). MMP-13 and MMP-1 antibodies were provided by courtesy of Dr. Gillian Murphy (Cambridge University, UK) Immunoreactivity was visualized using the ECL system (Amersham Biosciences, Piscataway, N.J., USA) and the Signal Visual Enhancer system (Pierce), which magnifies the signal.

human NP cells [2] = assay: Gelatin zymography of conditioned media from LPS- or IL-1-stimulated human NP cells; type: cell-based; conditions: MyD88i 100 μM, 24 hr, p<0.01
Procedure: as §2, with “Cells were harvested and prepared for either cell lysates or total RNA extraction followed by real-time qPCR analyses, as previously described (Li et al., 2008b). 18s rRNA was used for normalization.” left out
Gelatin zymography was then performed as previously described (Gupta et al., 2007). […] After development, gel images were captured and the clear bands were analyzed using “ImageJ” image analysis software (www.imagej.nih.gov), and were expressed in arbitrary optical density units. […]
Because MyD88i effectively suppresses expression and/or production of multiple cartilage degrading enzymes, TLR-2 and stress-associated genes after stimulation with either LPS or IL-1 (FIGS. 1˜4), the role of MyD88i in antagonizing catalytic enzyme activity was further analyzed by performing reverse zymography (FIG. 5). […]

mouse lumbar spine discs = assay: Ex vivo intradiscal injection organ culture model, Safranin O-fast green histology for PG loss; conditions: intradiscal injection 150 μM per disc, IL-1 100 ng/mL, 6 days organ culture
Procedure: Lumbar spine segments from deceased mice were dissected under sterile conditions within 12 hrs after sacrifice at the Rush University animal facility for ex vivo organ culture, as previously described (Chiba et al., 1998). The requirement for the pre-treatment of MyD88 has been previously described (Ahmad et al., 2007). Therefore, intradiscal pre-injection of MyD88i ([…]) en bloc was performed using a 30-gauge needle (30 G, 1.50 μL volume). Injected discs were then separated and incubated in DMEM/Ham's F-12 medium supplemented with 1% mini-ITS. After 24 hrs, the MyD88i pre-injected discs were challenged with either IL-1 (100 ng/mL) or LPS (10 μg/mL) and further incubated for 6 days. Harvested discs were fixed in 4% paraformaldehyde and then decalcified in EDTA, which was changed every 5 days. The decalcified discs were paraffin embedded. Serial disc sections of exactly 5-μm thickness were obtained to prepare slides. Safranin O-fast green staining was performed to assess general morphology and the loss of PG in disc ground substance.
Harvested discs were fixed in 4% paraformaldehyde and decalcified in EDTA, which was changed every 5 days. The decalcified discs were paraffin embedded. Serial disc sections of exactly 5-μm thickness were obtained to prepare slides. […]

[3] = MyD88i 100 μM, IL-1 10 ng/mL, 24 hr, qPCR, p<0.05
[4] = MyD88i 100 μM, LPS 10 μg/mL, 24 hr, qPCR, p<0.01

Sequence: DRQIKIWFQNRRMKWKKRDVLPGT [MyD88i]
- IL-1-induced upregulation of catabolic gene expression (MMP-13, ADAMTS-4, ADAMTS-5) (bovine NP cells; [3]): significantly suppresses
- IL-1-stimulated TLR-2 levels (bovine NP cells; [3]): significant decrease
- LPS-induced upregulation of catabolic gene expression (MMP-13, ADAMTS-4, ADAMTS-5) (bovine NP cells; [4]): significantly suppresses
- LPS-stimulated TLR-2 levels (bovine NP cells; [4]): significant decrease
- minimal dose demonstrating maximal effects (bovine NP cells; initial experiments, monolayer cultures, different concentrations of MyD88i): 100 µM
- IL-1-induced collagenases MMP-13 and MMP-1, mRNA and protein levels (human NP cells [1]; IL-1 10 ng/mL, p<0.05): significant decreases
- induction of ADAMTS-4 expression by IL-1 (human NP cells [1]; IL-1 10 ng/mL, qPCR, p<0.05): significantly reduced
- IL-1-induced iNOS gene levels (human NP cells [1]; IL-1 10 ng/mL, qPCR, p<0.05 vs IL-1 alone): significant suppression
- LPS-induced collagenases MMP-13 and MMP-1, mRNA and protein levels (human NP cells [1]; LPS 10 μg/mL, p<0.01): significant decreases
- induction of ADAMTS-4 expression by LPS (human NP cells [1]; LPS 10 μg/mL, qPCR, p<0.01): significantly reduced
- LPS-induced iNOS gene levels (human NP cells [1]; LPS 10 μg/mL, qPCR, p<0.01 vs LPS alone): significant suppression
- IL-1-induced catalytic enzyme activity (gelatin zymography, densitometry) (human NP cells [2]; IL-1 10 ng/mL): markedly suppressed
- LPS-induced catalytic enzyme activity (gelatin zymography, densitometry) (human NP cells [2]; LPS 10 μg/mL): markedly suppressed
- IL-1-induced PG loss in disc organ culture (mouse lumbar spine discs): significantly attenuates
